# Target: T1, PhoDHS (deoxyhypusine synthase from Pyrococcus horikoshii OT3) (Pyrococcus horikoshii, UniProt O50105)
# T1 construct: gene dys; full length 1-342, 39 kDa; N-terminal His6 tag with TEV site, tag cleaved; expressed in E. coli B834 (DE3) pRARE2; homotetramer about 130 kDa
# Assay: X-ray crystal structure ([…] Å); UV absorbance of NAD+ bound in solution
# Format: binding
# Settings: NAD+ co-purified from E. coli, none added for the crystal; crystals at pH 4.8, 20 °C; UV at pH 8.0; site at the molA/molD interface
# T1 sequence (O50105 whole entry): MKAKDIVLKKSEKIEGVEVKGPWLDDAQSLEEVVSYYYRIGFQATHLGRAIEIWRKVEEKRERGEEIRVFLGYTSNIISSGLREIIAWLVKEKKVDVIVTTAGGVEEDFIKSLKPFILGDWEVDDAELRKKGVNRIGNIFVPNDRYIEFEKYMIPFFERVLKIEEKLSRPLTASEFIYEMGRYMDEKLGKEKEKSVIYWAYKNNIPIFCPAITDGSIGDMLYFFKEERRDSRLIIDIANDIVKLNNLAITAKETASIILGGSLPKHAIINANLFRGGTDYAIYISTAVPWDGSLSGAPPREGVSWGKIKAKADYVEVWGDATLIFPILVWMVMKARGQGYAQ
structure (smiles),measurement,value
NC(=O)c1ccc[n+]([C@@H]2O[C@H](COP(=O)(O)OP(=O)(O)OC[C@H]3O[C@@H](n4cnc5c(N)ncnc54)[C@H](O)[C@@H]3O)[C@@H](O)[C@H]2O)c1 [NAD^+],X-ray crystal structure (2.2 Å); UV absorbance of NAD+ bound in solution,Two bulky electron density blocks shaped as NAD^+ were distinguished at the interface between molA
